Reference: the supplement of paper PMC10307832

Columns and labels:
Experiment in all cases: relative viability (nuclei count vs DMSO), 5 days (fraction); higher = more cells survive
[1] = compound: C1CC(C2=C(C1)C3=C(N2)C=CC(=C3)Cl)C(=O)N [Selisistat] + Nc1ncn([C@H]2C[C@H](O)[C@@H](CO)O2)c(=O)n1 [Decitabine] (partner 2 µM)
Summary of the method: (§1)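 Lung cancer cell lines, seeded in 1536-well plates, were treated the following day by pin tool with a single drug or with five library-drug doses (not always all listed) in √10 steps on top of a fixed anchor-drug dose. Cells were fixed and nuclei stained in one step after 5 days, and nuclei were counted. Relative viability is the nuclei count for treated wells divided by that for vehicle wells, reported as medians of duplicate plates.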

[2] = compound: c1ccc2c(CCNc3ccc(Nc4ccncc4)cc3)c[nH]c2c1 [Serdemetan] + CC1(C)CCC(c2ccc(Cl)cc2)=C(CN2CCN(c3ccc(C(=O)NS(=O)(=O)c4ccc(N[C@H](CCN5CCOCC5)CSc5ccccc5)c(S(=O)(=O)C(F)(F)F)c4)cc3)CC2)C1 [Navitoclax] (partner 0.5 µM)
Summary of the method: as §1

[3] = compound: C1CC(C2=C(C1)C3=C(N2)C=CC(=C3)Cl)C(=O)N [Selisistat] + COc1cc2c(Oc3ccc(NC(=O)C4(C(=O)Nc5ccc(F)cc5)CC4)cc3F)ccnc2cc1OCCCN1CCOCC1 [Foretinib] (partner 0.25 µM)
Summary of the method: as §1

[4] = compound: c1ccc2c(CCNc3ccc(Nc4ccncc4)cc3)c[nH]c2c1 [Serdemetan] + Nc1ncn([C@H]2C[C@H](O)[C@@H](CO)O2)c(=O)n1 [Decitabine] (partner 2 µM)
Summary of the method: as §1

Cell Line	relative viability ([1]; first compound 0.4 µM)	relative viability ([1]; first compound 1.265 µM)	relative viability ([1]; first compound 4 µM)	relative viability ([1]; first compound 12.65 µM)	relative viability ([1]; first compound 40 µM)	relative viability ([2]; first compound 0.04 µM)	relative viability ([2]; first compound 0.1265 µM)	relative viability ([2]; first compound 0.4 µM)	relative viability ([2]; first compound 1.265 µM)	relative viability ([2]; first compound 4 µM)	relative viability ([3]; first compound 0.4 µM)	relative viability ([3]; first compound 1.265 µM)	relative viability ([3]; first compound 4 µM)	relative viability ([3]; first compound 12.65 µM)	relative viability ([3]; first compound 40 µM)	relative viability ([4]; first compound 0.04 µM)	relative viability ([4]; first compound 0.1265 µM)	relative viability ([4]; first compound 0.4 µM)	relative viability ([4]; first compound 1.265 µM)	relative viability ([4]; first compound 4 µM)
201T	0.915	0.816	0.845	0.877	0.913	1.18	1.22	1.2	1.14	1.13	1.06	1.03	0.997	0.986	1.11	0.863	0.801	0.783	0.489	0.593
A549	0.257	0.209	0.232		0.393	1.2	1.15	1.19	0.598	0.208	1.04	0.826	0.945	0.917	0.985	0.263	0.245	0.261	0.291	0.198
A-427	0.578	0.575		0.655	0.637	0.967	0.971	0.882	0.724	0.615	1.02	0.976	1.02	1.12	0.984	0.555	0.56	0.606	0.513	0.45
ABC-1	0.881	1.02		0.86	1.08						0.927	1.04	0.929	1.08	1.16	0.896	1.01	1.25	0.921	0.844
BEN	0.923	0.556	0.479	0.707	0.691	0.0749	0.0626	0.0845	0.0724	0.0676	0.575	0.553	0.373	0.558	0.468	0.649	0.612	0.726	0.631	0.647
CAL-12T						1.3	1.42	1.26		1.19	1.12	1	1	1.03	1.03					
COR-L23	0.596	0.423	0.484	0.436	0.411	1.03	1	1.07	0.939	0.81	1.08	0.981	1.04	1.03	0.996	0.4	0.443	0.435	0.39	0.353
COR-L 105	0.664	0.731	0.587	0.635	0.598	0.708	0.871	0.596	0.771	0.722	0.984	1.15		1.1	1.14	0.65	0.646	0.574	0.52	0.626
Calu-6						0.973	0.869	0.682	0.687	0.493	0.932	0.812	0.814	0.853	0.84					
ChaGo-K-1	0.486	0.511	0.482	0.491	0.502		1.15	0.925	0.681	0.899	0.927	0.896	0.922	0.857	0.843	0.488	0.42	0.421	0.266	0.303
EBC-1						0.553	0.47	0.41	0.424	0.341	0.111	0.0934	0.0874	0.0996	0.104					
EKVX	0.415	0.355	0.339	0.367	0.368	0.862	0.888	0.973	0.791	0.91	0.808	0.83	0.595	0.866	0.867	0.322	0.33			0.291
EMC-BAC-2	1.11	0.897	0.931	0.933	0.683	1.14	1.14	1.1	1.09	0.745	1.03	0.97	0.962	1.11	0.842	0.882	0.912	0.972	0.879	0.823
EPLC-272H	0.365	0.389		0.382	0.364	1.11	1.15	0.822	0.632	0.691	0.849	0.662		0.566	0.631	0.384	0.362	0.341	0.338	0.256
H3255	0.624	0.628	0.562	0.578	0.61	0.437	0.538	0.485	0.362	0.404	0.863	0.9	0.837	0.84	0.767	0.546	0.588		0.569	0.42
HARA	0.777	0.529		0.48	0.647	1.12	1.11	1.09		0.757	0.865	0.905	0.773	0.839	0.512	0.542	0.47	0.409	0.344	0.379
HCC-15	0.695	0.739		0.737	0.79	0.755	0.729	0.624	0.56	0.504	1.21	0.996		1.05	1.21	0.614	0.599	0.56	0.511	0.341
HCC-44	0.976	1.01	0.943	1.01	1.07	1.13	1.04	0.972	0.756	0.741						0.895	0.954	0.925	0.865	0.961
HCC-78	0.768	0.794	0.6	0.66	0.646	0.758	0.898	0.774	0.756	0.384	0.497	0.567	0.414	0.562	0.592	0.659	0.718	0.698	0.638	0.525
HCC-366	0.383	0.31	0.33	0.356	0.324	1.03	0.981	0.522	0.0806	0.0474	0.837	0.892	0.755	0.862	0.957	0.209	0.154	0.0922	0.0502	0.0773
HCC-827	0.313	0.375	0.31	0.321	0.291	1.02	0.941		0.787	0.753	1.17	1.09	1.02	0.9	1.08	0.371	0.243		0.263	0.305

Cell Line	relative viability ([1]; first compound 0.4 µM)	relative viability ([1]; first compound 1.265 µM)	relative viability ([1]; first compound 4 µM)	relative viability ([1]; first compound 12.65 µM)	relative viability ([1]; first compound 40 µM)	relative viability ([2]; first compound 0.04 µM)	relative viability ([2]; first compound 0.1265 µM)	relative viability ([2]; first compound 0.4 µM)	relative viability ([2]; first compound 1.265 µM)	relative viability ([2]; first compound 4 µM)	relative viability ([3]; first compound 0.4 µM)	relative viability ([3]; first compound 1.265 µM)	relative viability ([3]; first compound 4 µM)	relative viability ([3]; first compound 12.65 µM)	relative viability ([3]; first compound 40 µM)	relative viability ([4]; first compound 0.04 µM)	relative viability ([4]; first compound 0.1265 µM)	relative viability ([4]; first compound 0.4 µM)	relative viability ([4]; first compound 1.265 µM)	relative viability ([4]; first compound 4 µM)
HOP-62	0.22	0.211	0.215	0.227	0.192	1.08	0.942	1.05	0.944	0.962	1.09	1.19	1.17	0.97	1.12	0.195	0.256	0.22	0.196	0.177
IA-LM						0.822	0.648	0.692	0.341	0.239	1.21	1.07	1.19	0.902	1.19					
LC-2-ad	0.909	0.797	0.764	0.821	0.775	0.5	0.418	0.427		0.293	1.14		0.706	0.918	0.889	0.795	0.727	0.679	0.714	0.634
LCLC-97TM1	0.24	0.219		0.245	0.29	0.472	0.32	0.278	0.364	0.377	0.861	0.849		0.907	0.862	0.232	0.213	0.239	0.175	0.165
LCLC-103H	0.782	0.77	0.7	0.729	0.75						0.691	0.851	0.748	0.683	0.805	0.73	0.663	0.426	0.587	0.687
LK-2	0.397	0.307	0.198	0.34	0.294	0.918	0.889	1.2	0.953	0.746	0.955	1.04	1.45	0.955	1.01	0.37	0.29	0.274	0.223	0.283
LOU-NH91	0.815	0.795	0.784	0.787	0.788	0.696	0.74		0.534	0.581	1.01	0.938	0.872	0.928	0.896	0.813	0.845			0.872
LU99A	0.947	0.928	0.847	0.792	0.907	0.803	0.842	0.712	0.251	0.26	0.825	0.744	0.774	0.773	0.801	0.943	0.84	0.775	0.419	0.277
NCI-H358	0.248	0.226	0.195	0.212	0.218						0.808	0.763	0.553	0.727	0.833	0.186	0.234	0.221	0.18	0.195
NCI-H522	0.768	0.662	0.664	0.617	0.647											0.677	0.775	0.68	0.691	0.613
NCI-H650	0.407	0.293	0.286	0.324	0.33						1.02	1.03	1.24	0.98	0.992	0.321	0.331	0.321	0.24	0.262
NCI-H661	0.592	0.521	0.428	0.46	0.442						1.06	1.04	0.977	0.936	0.876	0.543	0.533	0.533	0.473	0.469
NCI-H1299						1.02	1.03	1.02	0.942	0.835	1.16	1.13	1.15	1.07	1.11					
NCI-H1563											1.05	0.91	0.941	0.9	0.809					
NCI-H1648	0.477	0.45		0.406	0.551												0.533	0.424	0.3	0.302
NCI-H1703						1.05	1.24	1.17	0.958	0.951	0.338	0.336	0.365	0.356	0.313					
NCI-H1792	0.625	0.497		0.516	0.537	0.655	0.587	0.551	0.355	0.476						0.429	0.459	0.417	0.327	0.176
NCI-H2228						0.878	0.782	0.86	0.34	0.199	0.979	0.931	0.685	0.843	0.916					
NCI-H2342	0.734	0.772	0.689	0.704	0.874						0.997	0.986	0.896	1.09	1.07	0.753	0.776	0.643	0.531	0.475
SW 900	0.446	0.401	0.42	0.517	0.5						0.921	0.778	0.798	0.955	0.977	0.398	0.473	0.433	0.331	0.284
